Each structure is given as a SMILES string. Inconclusive results are not listed. Active and inactive are the calls of the source. The rule behind the calls is not given here.

Drawing on PubChem BioAssay AID449745 (Broad Institute, 2010), this text covers AC50 for 28 molecules.

The test has as its target Zinc finger protein mex-5 (Caenorhabditis elegans) (UniProt Q9XUB2). Description: retest of MEX-5 TCR-2 binding inhibitors, confirmation, biochemical, C. elegans, fluorescence polarization, dose retest (AID 449745).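 Note: potency is for blocking Mex-5 binding to labeled TCR2 RNA like unlabeled competitor.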 Particulars: Mex-5 / TCR-2 RNA binding.

Zinc finger protein mex-5 (Caenorhabditis elegans), sequence (Q9XUB2 whole entry, looked up): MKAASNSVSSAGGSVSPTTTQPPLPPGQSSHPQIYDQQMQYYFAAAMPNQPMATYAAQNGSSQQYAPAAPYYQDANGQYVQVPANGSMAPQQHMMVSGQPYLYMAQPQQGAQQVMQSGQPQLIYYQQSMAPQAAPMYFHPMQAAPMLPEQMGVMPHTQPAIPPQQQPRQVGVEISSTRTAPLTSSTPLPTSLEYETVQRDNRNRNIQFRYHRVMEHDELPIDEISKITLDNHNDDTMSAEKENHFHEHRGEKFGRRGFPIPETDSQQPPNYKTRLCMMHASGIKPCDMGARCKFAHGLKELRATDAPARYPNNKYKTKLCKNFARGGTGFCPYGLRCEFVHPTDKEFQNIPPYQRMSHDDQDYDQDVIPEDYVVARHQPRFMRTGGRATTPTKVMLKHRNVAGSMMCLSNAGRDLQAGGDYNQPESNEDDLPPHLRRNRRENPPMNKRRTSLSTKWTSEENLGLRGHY

Take `CCc1cc[n+](-c2nc3ccccc3nc2[N-]S(=O)(=O)c2ccc(Br)s2)cc1`: the AC50 was 4.86 µM.

With `CC(C)N1CCc2c(sc(NC(=O)c3ccc(S(=O)(=O)N4CCCCC4C)cc3)c2C(N)=O)C1` (stereo not drawn), the AC50 is > 38 µM (inactive). To `CC(C(=O)Nc1ccc(C(=O)O)c(O)c1)N1C(=O)/C(=C\c2ccco2)SC1=S` (stereo not drawn) belongs 19 µM; to `O=C(/C=C/Nc1ccc(S(=O)(=O)Nc2cnc3ccccc3n2)cc1)c1ccccc1`, > 38 µM (inactive). For the molecule `Cc1cc(C)c2c(c1)NC(C(=O)O)C1CC=CC21` (stereo not drawn), the concentration at half-maximal activity (AC50) is 13.3 µM. For `S=c1[nH]cnc2sc(Nc3ccccc3)nc12`, the AC50 was 27.4 µM. Take `CC(=O)Nc1ccc(N2C(=O)c3cccc4c(O)ccc(c34)C2=O)cc1`: the concentration at half-maximal activity (AC50) is 3.81 µM. Consider `CCc1ccc(N2C(=O)NC(=O)/C(=C/c3cccn3CCOc3ccc(C(C)CC)cc3)C2=O)cc1` (stereo not drawn), for which the AC50 was > 38 µM (inactive). To `Cn1c(=O)c2[nH]c(-c3ccccc3)c(O)c2n(C)c1=O` belongs 0.895 µM; to `CCOC(=O)c1ccc(-c2ccc(/C=C(\C#N)C(=O)NCC3CCCO3)o2)cc1` (stereo not drawn), > 38 µM (inactive).

Turning to `O=C(O)CCCCCN1C(=O)C(O)=C(C(=O)/C=C/c2ccccc2)C1c1ccccc1[N+](=O)[O-]` (stereo not drawn), the AC50 was > 38 µM (inactive). For `CCc1ccc[n+](-c2[nH]c(=O)sc2/C=N/NC([S-])=Nc2ccccc2)c1`, the AC50 was 4.63 µM. To `COc1cccc(OCC(=O)NNC(=O)c2cnccn2)c1` belongs 0.315 µM; to `COCCCNC(=O)c1ccc2c3c(onc13)-c1ccccc1C2=O`, less than 0.3 µM; to `Cc1c(N=NC2=C(O)CCCC2=O)c(=O)n(-c2ccccc2)n1C`, > 38 µM (inactive). To `O=C(Cc1cccs1)Nc1nnc(SCc2ccc(Br)cc2)s1` belongs > 38 µM (inactive); to `COc1ccc(N=Nc2nc3ccc(Br)cc3n2C)cc1`, 34.9 µM. To `CN(C)c1ccc(C(c2nnnn2CCOC(=O)Nc2ccc(Cl)cc2)N2CCOCC2)cc1` (stereo not drawn) belongs > 38 µM (inactive); to `CCOc1cc(/C=C2\C(=O)N(c3cccc(C(=O)O)c3)N=C2C(F)(F)F)ccc1OCC(=O)Nc1ccccc1OC`, 8.68 µM. For the molecule `Cc1nn2c(N)csc2nc1=O`, the AC50 is 30 µM. To `Cc1cc2n(n1)C(c1c[nH]c3ccccc13)Nc1ccccc1-2` (stereo not drawn) belongs > 38 µM (inactive); to `COc1ccc(/C=C2\SC(=O)NC2=S)cc1OC`, 20 µM. Consider `CCOC(=O)/C(C#N)=C\c1ccc(N2CCN(C/C=C/c3ccccc3)CC2)cc1`, for which the AC50 was 7.9 µM.

Regarding `O=C(CN1C(=O)/C(=C/c2cccc(Br)c2)SC1=S)NC1=NCCS1`, the AC50 is > 38 µM (inactive).

Regarding `Cc1cc[n+](-c2[nH]c(=O)sc2/C=N/N=C(\[O-])c2ccncc2)cc1`, the AC50 is 29.4 µM. To `N=c1c(S(=O)(=O)c2ccc(Cl)cc2)cc2c(=O)n3ccccc3nc2n1CC1CCCO1` (stereo not drawn) belongs > 38 µM (inactive); to `CCc1ccc(N2C(=O)NC(=O)/C(=C\c3cccn3CCOc3ccc(C(C)C)cc3)C2=O)cc1`, > 38 µM (inactive); to `CC1(OC(=O)c2ccc(Cl)nc2)C(=O)C=C2C=C(c3ccc(C#N)cc3)OC=C2C1=O` (stereo not drawn), 20 µM.
